Tests used:
[1] = system: rat having hypersensitive pain induced by anticancer agent (Oxaliplatin); assay: Von Frey test in rat having hypersensitive pain induced by anticancer agent (Experimental Example 1); format: in vivo; settings: SD rat, Oxaliplatin 5 mg/kg i.p. 5 days; oral once per day 28 days; L-serine 10.5 mg/kg, EPA 300 mg/kg equivalent; 22 and 28 days; stimulation intensity 4 g, 8 g, 15 g
Method: 6-Week-old male SD rats were divided into 5 groups (1A group-1E group, N=6) based on the body weight, an anticancer agent (Oxaliplatin 5 mg/body weight kg) was intraperitoneally administered to 4 groups other than 1A group for 5 days, and saline was intraperitoneally administered to 1A group for 5 days. In addition, the following evaluation liquid was orally ingested once per day in the time zone of 4 to 5 hours after start of the light period for 28 days simultaneously from the start of the intraperitoneal administration. As eicosapentaenoic acid administered to 1D group, 1E group, fish oil corresponding to 300 mg/body weight kg (equivalent to 429 mg/body weight kg as n-3 fatty acid) was used. Evaluation Liquids for 1A Group-1E Group: • 1A group: distilled water • 1B group: distilled water • 1C group: L-serine 10.5 mg/body weight kg • 1D group: eicosapentaenoic acid 300 mg/body weight kg equivalent • 1E group: L-serine 10.5 mg/body weight kg+eicosapentaenoic acid 300 mg/body weight kg equivalent Von Frey test was performed at 22 days and 28 days after the start of the anticancer agent administration. […] The ratio (%) of the number of pain response relative to the number (10 times) of filament pressing was calculated at each stimulation intensity.

[2] = system: rat having hypersensitive pain induced by gonitis inducing agent (Zymosan); assay: Von Frey test in rat having hypersensitive pain induced by gonitis inducing agent (Zymosan) (Experimental Example 2); format: in vivo; settings: SD rat, Zymosan 2 mg right knee; oral once per day; L-serine 10.5 mg/kg, EPA 300 mg/kg equivalent; 7 and 14 days; right and left foot; 4 g, 8 g, 15 g
Method: (§1) 8-Week-old male SD rats were divided into 5 groups (2A group-2E group, N=7) based on the body weight, and 2 mg of a gonitis inducing agent (Zymosan) was administered to the right knee cartilage part in 4 groups other than 2A group. In addition, the following evaluation liquid was orally ingested once per day in the time zone of 4 to 5 hours after start of the light period for 21 days from the administration of the gonitis inducing agent to the right knee. As eicosapentaenoic acid administered to 2D group, 2E group, fish oil corresponding to 300 mg/body weight kg (equivalent to 429 mg/body weight kg as n-3 fatty acid) was used.
(§2) Evaluation Liquids for 2A Group-2E Group: • 2A group: distilled water • 2B group: distilled water • 2C group: L-serine 10.5 mg/body weight kg • 2D group: eicosapentaenoic acid 300 mg/body weight kg equivalent • 2E group: L-serine 10.5 mg/body weight kg+eicosapentaenoic acid 300 mg/body weight kg equivalent
Von Frey test was performed at 7 days and 14 days after the gonitis inducing agent administration. […] The ratio (%) of the number of pain response relative to the number (5 times) of filament pressing was calculated at each stimulation intensity.

[3] = system: rat having hypersensitive pain induced by gonitis inducing agent (Zymosan); assay: Gastrocnemius weight of right and left foot in Zymosan gonitis rat (Experimental Example 2); format: in vivo; settings: 21 days after Zymosan, rank among 2C-2E groups
Method: as §1, §2
After the completion of ingestion of the evaluation liquid (21 days after gonitis inducing agent administration), rats were fasted for 17 hours, and the body weight, gastrocnemius weight of the right foot and the left foot, liver weight and weight of fat around epididymis of each group were measured.

[4] = system: peripheral neuropathic pain in an animal model of anticancer agent or diabetes; settings: at the maximum concentration of L-serine; WO 2011/111355; cited from earlier work

## N[C@@H](CO)C(=O)O [L-serine]
[1]
  number of pain response (Von Frey test) as compared to 1B group: slightly decreased
[2]
  number of pain response (Von Frey test) as compared to 2B group: slightly decreased
[3]; after 17 h fasting
  gastrocnemius weight of the right foot, comparison in 2C group to 2E group: lowest
[3]
  difference in the gastrocnemius weight of both feet, comparison among 2C group to 2E group: largest
[4]
  relieving effect on peripheral neuropathic pain due to anticancer agents and diabetes: partial

Reference: patent publication US10653655B2, “Composition for preventing or improving peripheral neuropathy” (AJINOMOTO CO., INC., priority 2014, dated 2020)
